Where a SMILES comes first, the peptide text is derived from it.
Columns and labels:
Hs-578T = experiment: Growth inhibition of human HS578T cells at 10 uM; format: functional
BT-549 = experiment: Growth inhibition of human BT549 cells at 10 uM; format: functional

CC(C)C[C@@H]1NC(=O)[C@H]([C@@H](C)O)NC(=O)[C@@H]2CCCN2C(=O)[C@H](Cc2ccccc2)NC(=O)[C@@H]2CCCN2C(=O)[C@H](Cc2ccc(O)cc2)NC(=O)[C@@H]2CCCN2C(=O)[C@H](Cc2ccccc2)NC(=O)[C@@H]2CCCN2C(=O)[C@H](CC(C)C)NC1=O [STYLOPEPTIDE 2] (cyclo(FPTLLPFPYP))
inhibition at 10 µM (Hs-578T): 56%
inhibition at 10 µM (BT-549): 77%

— ChEMBL document CHEMBL1144757, “Stylopeptide 2, a proline-rich cyclodecapeptide from the sponge Stylotella sp” (2008)
